US20050209157A1, “Short bioactive peptides and methods for their use” (priority 2001, published 2005)
≈ marks a conversion by molar mass, not a printed value. Where two headings read alike, the source gives them in different places. No end group written: not given here.

Tests used:
WI38 = details: MTT, 24 hours with peptide; normal fibroblast line
in vitro [1] = details: human, WI38 normal lung fibroblast cells
PC3 = assay: Anti-cancer assay, MTT, LD50; assay type: cell-based; details: 24 hours with peptide, prostate adenocarcinoma
Source text: (§1) Numbers are LD50 values (μg/mL).

HeLaS3 = assay: Anti-cancer assay, MTT, LD50; assay type: cell-based; details: 24 hours with peptide, cervical carcinoma
Source text: as §1

BMKC = assay: Anti-cancer assay, MTT, LD50; assay type: cell-based; details: BMKC cloned melanoma line, 24 hours with peptide
Source text: as §1

H1299 = assay: Anti-cancer assay, MTT, LD50; assay type: cell-based; details: 24 hours with peptide, lung large cell carcinoma
Source text: as §1

SW480 = assay: Anti-cancer assay, MTT, LD50; assay type: cell-based; details: SW480 colon adenocarcinoma line, 24 hours with peptide
Source text: as §1

MCF7 = assay: Anti-cancer assay, MTT, LD50; assay type: cell-based; details: MCF7 breast adenocarcinoma line, MTT, 24 hours with peptide
Source text: as §1

in vitro [2] = assay type: cell-based, human; details: human, human red blood cells
Experimental: This hemolytic assay is based upon that presented in Journal of Peptide Research 53: 82-90 (1999). […] All procedures were performed according to safety protocols pertaining to the handling and disposal of human body fluids.
Red blood cells (RBCs) were washed three times with PBS (35 mM phosphate buffer 0.15 M NaCl, pH 7.0). RBCs suspended in PBS (0.4% (v/v); about 10 ml per 15 peptides) were prepared. Suspensions (100 μl) were aliquoted to each sample and control tube. Serially diluted peptide solutions (100 μl) were pipetted into the sample tubes. Negative control tubes contained 100 μl PBS; positive control tubes contained 100 μl 1% Triton-X100 detergent. All tubes were incubated for 1 hour at 37° C. The tubes were removed from the incubator and centrifuged at 1000 g for 5 minutes. Supernatant (100 μl) was pipetted to a 96-well polyvinyl chloride plate. The absorbance at 414 nm (A414) was measured, and used to calculate the percent hemolysis according to the following formula. [formula]

[3] = LD50 WI38, WI38 normal lung fibroblast line, MTT, 24 hours with peptide
[4] = pH 7, Table 26, valine substitution, read-out: Hemolysis RBC LD50
[5] = WI-38 LD50, Table 26, valine substitution
[6] = pH 7, hemolytic assay, concentration at 50% hemolysis, 1 hour at 37° C., read-out: LD50

FAKKLAKKLKKLAKKLIGAVLKV-OH [SHIVA 11 [(1-16)ME(2-9]-COOH]
WI38 LD50 (WI38): 34 µg/mL
CC50 at 24 h (in vitro [1]; [3]): 34 µg/mL
PC3 LD50 (PC3): 28 µg/mL
HeLaS3 LD50 (HeLaS3): 180 µg/mL
LD50 BMKC (BMKC): 94 µg/mL
H1299 LD50 (H1299): 54 µg/mL
LD50 SW480 (SW480): 120 µg/mL
LD50 MCF7 (MCF7): 95 µg/mL

VALALKALKKALKKLKKALKKAL-OH [compound 508]
HC50 at 1 h (in vitro [2]; [4]): 70 µg/mL
CC50 at 24 h (in vitro [1]; [5]): 190 µg/mL

VALALKALKKLAKKLKKLAKKAL-NH2 [FLAK04 AM V]
CC50 at 24 h (in vitro [1]; [3]): 95 µg/mL
LD50 MCF7 (MCF7): 84 µg/mL

FAKKLAKKLKKLAKKLAK-NH2 [Shiva 10 (1-18) AM]
HC50 at 1 h (in vitro [2]; [6]): 900 µg/mL
CC50 at 24 h (in vitro [1]; WI38 LD50, MTT, 24 hours with peptide, normal fibroblast line): 101 µg/mL
PC3 LD50 (PC3): 81 µg/mL
HeLaS3 LD50 (HeLaS3): 190 µg/mL
H1299 LD50 (H1299): 71 µg/mL

VALALKALKKL-NH2 [compound 180]
HC50 at 1 h (in vitro [2]; [4]): 850 µg/mL
CC50 at 24 h (in vitro [1]; [5]): 1000 µg/mL

VAKKFAKKFKKFAKKFAKFAFAF-NH2 [P503]
HC50 at 1 h (in vitro [2]; [6]): 20 µg/mL
CC50 at 24 h (in vitro [1]; [3]): 150 µg/mL
LD50 MCF7 (MCF7): 210 µg/mL

CC(C)C[C@H](NC(=O)[C@H](C)NC(=O)[C@H](CC(C)C)NC(=O)[C@H](C)NC(=O)[C@H](CC(C)C)NC(=O)[C@H](CCCCN)NC(=O)[C@H](C)NC(=O)[C@H](CC(C)C)NC(=O)[C@H](CCCCN)NC(=O)[C@H](CCCCN)NC(=O)[C@H](C)NC(=O)[C@H](CC(C)C)NC(=O)[C@H](CCCCN)NC(=O)[C@H](C)NC(=O)[C@H](CC(C)C)NC(=O)[C@H](CCCCN)NC(=O)[C@H](CCCCN)NC(=O)[C@H](C)NC(=O)[C@@H](N)Cc1ccccc1)C(N)=O [P36]
HC50 at 1 h (in vitro [2]; [6]): 85 µg/mL
WI38 LD50 (WI38): 19 µg/mL
CC50 at 24 h (in vitro [1]; [3]): 19 µg/mL (≈ 9.32 µM)
PC3 LD50 (PC3): 19 µg/mL
LD50 BMKC (BMKC): 56 µg/mL
H1299 LD50 (H1299): 57 µg/mL
LD50 SW480 (SW480): 30 µg/mL
LD50 MCF7 (MCF7): 9 µg/mL

VAKFLAKFLKKAL-NH2 [P502, VAKFLAKFLKKAL-NH2]
HC50 at 1 h (in vitro [2]; [6]): 100 µg/mL

VAKLLAKALKKLL-NH2 [FLAK50D V]
CC50 at 24 h (in vitro [1]; [3]): 75 µg/mL
LD50 MCF7 (MCF7): 45 µg/mL

VAKLLAKALKKLL-NH2 [P506]
HC50 at 1 h (in vitro [2]; [6]): 120 µg/mL

VAKFLAKFLKKAL-NH2 [compound 502]
HC50 at 1 h (in vitro [2]; [4]): 100 µg/mL
CC50 at 24 h (in vitro [1]; [5]): 64 µg/mL

CC(C)C[C@H](NC(=O)[C@H](C)NC(=O)[C@H](CC(C)C)NC(=O)[C@H](C)NC(=O)[C@H](CC(C)C)NC(=O)[C@H](CCCCN)NC(=O)[C@H](C)NC(=O)[C@H](CC(C)C)NC(=O)[C@H](CCCCN)NC(=O)[C@H](CCCCN)NC(=O)[C@H](C)NC(=O)[C@H](CC(C)C)NC(=O)[C@H](CCCCN)NC(=O)[C@H](C)NC(=O)[C@H](CC(C)C)NC(=O)[C@H](CCCCN)NC(=O)[C@H](CCCCN)NC(=O)[C@H](C)NC(=O)[C@@H](N)C(C)C)C(N)=O [compound 504]
HC50 at 1 h (in vitro [2]; [4]): 70 µg/mL
CC50 at 24 h (in vitro [1]; [5]): 110 µg/mL (≈ 55.3 µM)

CC(C)C[C@H](NC(=O)[C@H](C)NC(=O)[C@H](CC(C)C)NC(=O)[C@H](C)NC(=O)[C@H](CC(C)C)NC(=O)[C@H](CCCCN)NC(=O)[C@H](C)NC(=O)[C@H](CC(C)C)NC(=O)[C@H](CCCCN)NC(=O)[C@H](CCCCN)NC(=O)[C@H](C)NC(=O)[C@H](CC(C)C)NC(=O)[C@H](CCCCN)NC(=O)[C@H](C)NC(=O)[C@H](CC(C)C)NC(=O)[C@H](CCCCN)NC(=O)[C@H](CCCCN)NC(=O)[C@H](C)NC(=O)[C@@H](N)C(C)C)C(N)=O [FLAK 25 AM V]
CC50 at 24 h (in vitro [1]; [3]): 110 µg/mL (≈ 55.3 µM)
LD50 MCF7 (MCF7): 130 µg/mL

VAKALKALLKALKAL-NH2 [P501, VAKALKALLKALKAL-NH2]
HC50 at 1 h (in vitro [2]; [6]): 15 µg/mL

VALALKALKKLLKKLKKLAKKAL-NH2 [03 AMV]
CC50 at 24 h (in vitro [1]; [3]): 77 µg/mL
LD50 MCF7 (MCF7): 62 µg/mL

VAKFLAKFLKKAL-NH2 [FLAK50 Q1V]
CC50 at 24 h (in vitro [1]; [3]): 64 µg/mL
LD50 MCF7 (MCF7): 92 µg/mL
